Reference: ChEMBL document CHEMBL1201862, “PubChem BioAssay data set” (2004)
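Tested at 5 concentrations; 48 h exposure; 96-well plates; endpoints linearly interpolated, else capped at highest concentration. Here, GI50 denotes the concentration required for 50% inhibition of growth.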 The source made the active and inactive calls. Cut-off read from the data, not from the text of the source: active = GI50 up to about 1.1 µM and inactive = higher.

Legend:
Test in all cases: NCI-60 cell line screen, 48 h
ACHN = tested on: ACHN
CAKI-1 = tested on: CAKI-1
HCC 2998 = tested on: HCC 2998
HOP-62 = tested on: HOP-62
M14 = tested on: M14
MCF7 = tested on: MCF7
MDA-N = tested on: MDA-N
NCI/ADR-RES = tested on: NCI/ADR-RES
OVCAR-4 = tested on: OVCAR-4
PC-3 = tested on: PC-3
RPMI-8226 = tested on: RPMI-8226
SF-268 = tested on: SF-268
SF-539 = tested on: SF-539
SK-MEL-28 = tested on: SK-MEL-28
SK-OV-3 = tested on: SK-OV-3
SNB-19 = tested on: SNB-19
SR = tested on: SR
UO-31 = tested on: UO-31
OVCAR-3 = tested on: OVCAR-3

| Structure (SMILES) | GI50 (ACHN) | GI50 (CAKI-1) | GI50 (HCC 2998) | GI50 (HOP-62) | GI50 (M14) | GI50 (MCF7) | GI50 (MDA-N) | GI50 (NCI/ADR-RES) | GI50 (OVCAR-4) | GI50 (PC-3) | GI50 (RPMI-8226) | GI50 (SF-268) | GI50 (SF-539) | GI50 (SK-MEL-28) | GI50 (SK-OV-3) | GI50 (SNB-19) | GI50 (SR) | GI50 (UO-31) | GI50 (OVCAR-3) |
| --- | --- | --- | --- | --- | --- | --- | --- | --- | --- | --- | --- | --- | --- | --- | --- | --- | --- | --- | --- |
| CN(C)c1ccc(/C=C(\C#N)c2nc(-c3cc4ccccc4oc3=O)cs2)cc1 | 13.3 µM (inactive) | > 50 µM (inactive) | > 50 µM (inactive) | 5.93 µM (inactive) | 15.7 µM (inactive) | > 50 µM (inactive) | > 50 µM (inactive) | 35.5 µM (inactive) | 24.9 µM (inactive) | > 50 µM (inactive) | > 50 µM (inactive) | 21 µM (inactive) | 8.89 µM (inactive) | > 50 µM (inactive) | 19.9 µM (inactive) | 13.2 µM (inactive) | > 50 µM (inactive) | > 50 µM (inactive) |  |
| Cc1ccc(S(=O)(=O)n2ccc(-c3ccc4ccn(S(=O)(=O)c5ccc(C)cc5)c4c3)c2)cc1 | > 100 µM (inactive) | > 100 µM (inactive) | > 100 µM (inactive) | > 100 µM (inactive) | > 100 µM (inactive) | > 100 µM (inactive) | > 100 µM (inactive) | > 100 µM (inactive) | > 100 µM (inactive) | > 100 µM (inactive) | > 100 µM (inactive) | > 100 µM (inactive) | > 100 µM (inactive) |  | > 100 µM (inactive) | 41 µM (inactive) | > 100 µM (inactive) | > 100 µM (inactive) | > 100 µM (inactive) |
| COC(=O)c1c(OC)cc2cc3c(c(O)c2c1C)C(=O)C1(O)C(=O)C=C(OC)C(OC(=O)CC(C)N)=C1C3=O (stereo unspecified) | 8.65 µM (inactive) | 14.2 µM (inactive) | 6.68 µM (inactive) | 29 µM (inactive) | 32.7 µM (inactive) | 15.6 µM (inactive) | > 100 µM (inactive) | 23.2 µM (inactive) | 18.3 µM (inactive) | 20.9 µM (inactive) | 7.6 µM (inactive) | 16.5 µM (inactive) | 8.59 µM (inactive) | 31.3 µM (inactive) |  | 6.41 µM (inactive) | 12.9 µM (inactive) | 18.7 µM (inactive) | 22.6 µM (inactive) |
| Cc1cn(C2CC(N/C(=N/C#N)NCC3OC(n4cnc5c(N)ncnc54)CC3O)C(CO)O2)c(=O)[nH]c1=O (stereo unspecified) | > 100 µM (inactive) | > 100 µM (inactive) | > 100 µM (inactive) | > 100 µM (inactive) | > 100 µM (inactive) | 1.04 µM (active) | > 100 µM (inactive) | > 100 µM (inactive) | > 100 µM (inactive) | > 100 µM (inactive) |  | > 100 µM (inactive) | > 100 µM (inactive) | > 100 µM (inactive) | > 100 µM (inactive) | > 100 µM (inactive) | > 100 µM (inactive) | > 100 µM (inactive) | > 100 µM (inactive) |
| CCOC(=O)C1=C(C)N(c2ccc(Cl)cc2)C2(O)C=CC(=O)C3C(=O)N(c4ccccc4)C(=O)C132 (stereo unspecified) | 1.59 µM (inactive) | 1.87 µM (inactive) |  | 2.02 µM (inactive) | 1.66 µM (inactive) | 1.62 µM (inactive) | 2.35 µM (inactive) | 2.36 µM (inactive) | 1.54 µM (inactive) | 1.5 µM (inactive) | 1.07 µM (active) | 1.76 µM (inactive) | 2.27 µM (inactive) | 1.51 µM (inactive) | 2.4 µM (inactive) | 2.18 µM (inactive) | 0.292 µM (active) | 1.6 µM (inactive) | 1.28 µM (inactive) |
| O=C1CC(=O)NC(NN2C(=O)CSC2C(=O)c2ccco2)=N1 (stereo unspecified) | > 100 µM (inactive) | > 100 µM (inactive) | > 100 µM (inactive) | > 100 µM (inactive) | > 100 µM (inactive) | > 100 µM (inactive) | > 100 µM (inactive) | > 100 µM (inactive) | > 100 µM (inactive) | > 100 µM (inactive) | > 100 µM (inactive) | > 100 µM (inactive) | > 100 µM (inactive) | > 100 µM (inactive) | > 100 µM (inactive) |  | > 100 µM (inactive) | > 100 µM (inactive) | > 100 µM (inactive) |
| CNC(=O)OCc1nc(N=[N+]=[N-])n(C)c1COC(=O)NC | 33.4 µM (inactive) | 20.7 µM (inactive) | 38.4 µM (inactive) | 52.7 µM (inactive) |  | 38 µM (inactive) | 60.4 µM (inactive) | 69.8 µM (inactive) | 37.1 µM (inactive) | 96.2 µM (inactive) | 28.6 µM (inactive) | 32.1 µM (inactive) | 54.5 µM (inactive) | > 100 µM (inactive) |  |  | 21.3 µM (inactive) | > 10 µM (inactive) | 39.2 µM (inactive) |
| O=C1CC(CC(OCc2ccccc2)C(COCc2ccccc2)OCc2ccccc2)CC(=O)N1 (stereo unspecified) | 30.3 µM (inactive) | 19.7 µM (inactive) | 36.6 µM (inactive) | 39.8 µM (inactive) | 39.4 µM (inactive) | 33.1 µM (inactive) | 30.1 µM (inactive) | 24.7 µM (inactive) | 38.4 µM (inactive) | 24.7 µM (inactive) | 34.5 µM (inactive) | 58.1 µM (inactive) | 60.3 µM (inactive) | 63.4 µM (inactive) |  |  | 34.3 µM (inactive) | 16 µM (inactive) | 37.4 µM (inactive) |
